Laboratory results as given in patent publication US20120021519A1, “EFFICIENT INDUCTION OF PLURIPOTENT STEM CELLS USING SMALL MOLECULE COMPOUNDS” (PRESIDENTS AND FELLOWS OF HARVARD COLLEGE, priority 2008, published 2012).
Where “and” joins values, the source holds several entries; their conditions need not be identical. Equal values may be shown once. Entries after “also recorded” stand apart in the source; their conditions may differ. Read-outs that look alike come from different tables or passages of the source.

Key:
[1] = test system: stable Oct4::GFP-negative intermediate cell lines (OKM); assay: Chemical reprogramming of stable intermediate cell lines from Oct4, Klf4, cMyc MEFs; type: cell-based, mouse
Experimental: (§1) Oct4::GFP-negative colonies in Oct4, Klf4, and cMyc or Oct4, Klf4, cMyc, and Sox2-infected MEF cultures were picked, plated on irradiated feeders, and single colonies were picked after 1 week. The resulting cell lines were passaged with trypsin and grown in mES media on feeders until passage 4, at which time they were treated with RepSox (25 μM), AZA (500 μM), or both for 48 hours. Oct4::GFP+colonies were scored 12 days after the beginning of chemical treatment.

[2] = test system: stable Oct4::GFP-negative intermediate cell lines (OKMS); assay: Chemical reprogramming of stable intermediate cell lines from Oct4, Klf4, cMyc, Sox2 MEFs; type: cell-based, mouse
Experimental: as §1

[3] = test system: Oct4, Klf4, cMyc, and Sox2-infected MEFs; assay: Reprogramming efficiency with all four factors; type: cell-based, mouse
Experimental: (§2) Moloney-based retroviral vectors (pMXs) expressing the murine complementary DNAs of Oct4, Sox2, c-Myc, and Klf4 were obtained from Addgene. These plasmids were transfected separately into individual populations of Plat-E packaging cells using Fugene 6, with 27 μl of Fugene 6 and 9 μg of DNA per 10 cm dish of Plat-E cells. Viral supernatants were obtained 48-72 hours post-transfection, filtered through a 0.22 μm filter, diluted 1:1 in MEF growth media, and supplemented with polybrene at a final concentration of 5 μg/ml. The supernatants for the four factors were mixed in an equimolar ratio, and media was used in place of a factor when it was omitted from the infection. MEFs were infected with two to three pools of viral supernatant during a 72-hour period. The first day that viral supernatant was termed “day 1 post-infection.”
(§3) Retroviral infection and compound or antibody treatment was performed as in the original chemical screen. To quantify the numbers of GFP+colonies produced in
(§4) different conditions, the number of colonies in each well was counted and at least 2 different wells were counted and averaged. Concentrations of compounds and antibodies were the following: VPA (Sigma)-2 mM, RepSox (Calbiochem)-25 μM, E-616451 (Calbiochem)-3 μM, EI-275 (Biomol)-3 SB-431542 (Sigma)-25 μM, TgfβIIspecific antibody (R&D Systems, AB-12-NA)-10 μg/ml, pan-Tgβ antibody (R&D Systems, AB-100-NA)-10 μg/ml. Unless otherwise noted, all chemical treatments were continuous from initial administration at day 4-5 post-infection until GFP+colonies were scored. Fresh chemical was added at each media change.

[4] = test system: Klf4, cMyc, and Sox2-infected Oct4::GFP MEFs; assay: Oct4 replacement: Oct4::GFP+ colonies in Klf4, cMyc, Sox2-infected MEFs; type: cell-based, mouse
Experimental: as §2
(§5) On day 4 post-infection, infected MEFs were trypsinized and re-seeded on irradiated feeders in 96-well plates at 2000 cells/well and cultured in mouse ES cell media (Knockout DMEM supplemented with 15% Hyclone FBS, L-glutamine, penicillin/streptomycin, nonessential amino acids, β-mercaptoethanol, and 1000 U/ml LIF). The next day, compound stock solutions diluted in DMSO and, where applicable, VPA (Sigma), were added at a final concentration of 1 μM and 2 mM, respectively. VPA was removed after 1 week, and compound was re-applied every other day with each media change. Plates were scored for GFP+colonies after 11 of compound treatment.
The inventors re-iterated their screen to find small molecules that could replace Oct4 (FIG. 27A). The inventors modified their approach slightly and screened in normal mES culture media containing a higher concentration of VPA (2 mM). After transducing 7500 MEFs with the four reprogramming transgenes and treating with VPA, the inventors observed only ˜125 GFP+ colonies (FIG. 27C). […] Therefore we opted to continue the screen under these conditions.
Following transduction with only Klf4, cMyc, and Sox2, 2000 MEFS were cultured for 25 days in the presence of VPA and each compound from the chemical library (FIG. 27A). […] Additionally, Ropivacaine, a compound that both antagonizes Na^+-channels and that also activates p38 mitogen-activated protein kinase (MAPK)(25)(FIG. 27B), induced more than 10 colonies that had mES-like morphologies, but were not GFP+(FIG. 27C).

[5] = test system: Oct4, Klf4, and cMyc-infected Oct4::GFP MEFs; assay: Sox2 replacement: Oct4::GFP+ colony formation in Oct4, Klf4, cMyc-infected MEFs; type: cell-based, mouse
Experimental: MEFs were derived from E12.5 embryos hemizygous for the Oct4::GFP transgenic allele. Gonads and internal organs were removed before processing the embryos for MEF isolation. MEFs were grown in DMEM supplemented with 10% FBS and penicillin/streptomycin. Low passage (up to passage 3) MEFs were used for generation of iPS cells.
as §2, §5
Infections and VPA/compound addition was done as in the original chemical screen, and wells were scored for GFP+ colonies on day 25 after compound addition.
as §3, §4

[6] = test system: Oct4, cMyc and Sox2-infected Oct4::GFP MEFs; assay: Klf4 replacement: Oct4::GFP+ colonies in Oct4, cMyc, Sox2-infected MEFs; type: cell-based, mouse
Experimental: as §2
as §5, with “VPA was removed after 1 week, and compound was re-applied every other day with each media change.” left out, “treatment. […]” for “treatment.”

[7] = test system: MEFs transduced with Oct4, Klf4, and Sox2; assay: cMyc replacement: Oct4::GFP+ colonies in the absence of cMyc; type: cell-based, mouse
Experimental: as §2, §3
different conditions, the number of colonies in each well was counted and at least 2 different wells were counted and averaged. […] Unless otherwise noted, all chemical treatments were continuous from initial administration at day 4-5 post-infection until GFP+colonies were scored. […]

[8] = test system: Nanog; assay: Nanog expression in partially reprogrammed intermediate cell lines; type: cell-based, mouse; settings: lines OKM 10 and OKMS 7, 48 hours
Experimental: Cells were grown to near confluence on an irradiated layer and RNA was isolated with Trizol (Invitrogen). RNA was amplified and labeled with biotin using the Illumina Total Prep RNA Amplification Kit from Ambion, hybridized to Illumina Whole-Genome Expression BeadChips (MouseRef-8), and analyzed by an Illumina Beadstation 500. All lines were analyzed in biological duplicate or triplicate. Data were processed using Resolver software.

[9] = test system: Tgf-β signaling; settings: reference 32; cited from earlier work

With `Nc1ncn([C@@H]2O[C@H](CO)[C@@H](O)[C@H]2O)c(=O)n1` [AZA, 5-aza-cytidine] the “lines reprogrammed out of 10 OKM intermediate lines” value ([1]; 48 hours treatment) was “none”, the “Oct4::GFP+ colonies in line OKM 10” value ([1]; 48 hours, then 14 days culture) was “Neither chemical induced formation of Oct4::GFP+colonies” and the “Oct4::GFP expression in RepSox-responsive OKMS lines” value ([2]; 48 hours treatment and 12 subsequent days) was “none of the RepSox-responsive cell lines expressed Oct4::GFP”. For the same compound, the “lines reprogrammed out of 9 OKMS intermediate lines” value ([2]; 48 hours treatment at passage 4) was “one”.
With `CCCCN1CCCCC1C(=O)Nc1c(C)cccc1C` (stereo not drawn) [Bupivacaine] the “effect on reprogramming efficiency with all four iPS factors” value (from here on “effect on reprogramming efficiency”) [3] was “not enhanced”, the “effect on reprogramming efficiency” value ([3]; listed as Bupivocaine) was “do not increase the efficiency of reprogramming” and the “Oct4::GFP+ colonies in the absence of VPA” value ([4]; larger scale) was “independently induced GFP+colonies”.
For `c1ccc(-c2n[nH]cc2-c2ccnc3ccccc23)nc1` [E-616451, [3-(Pyridin-2-yl)-4-(4-quinoyl)]-1H-pyrazole], the “rate of GFP+ colony formation with VPA” value ([5]; 1500 MEFs, + VPA, E-616452 25 μM, E-616451 3 μM, EI-275 3 μM) was “comparable to normal retroviral transduction with Sox2”, the “GFP+ colonies with mES-like morphology in primary screen” value ([5]; 2000 cells per well, compound 1 μM, 2 mM VPA for first 7 days, scored after 16 days) was “induced GFP+colonies” and the “concentration at which found to be most potent in reprogramming” value ([5]; E-616451 and EI-275 +VPA) was 3 µM. For the same compound, the “optimal concentration for Oct4::GFP+ colony formation” value ([5]; compound titration, 2 mM of VPA in all wells (FIG. 7)) was “greater than 1 μM”, the “GFP+ colonies in the absence of VPA” value ([5]; no VPA) was “could not induce the appearance of GFP+colonies” and the “effect on reprogramming efficiency” value [3] was “not enhanced; also recorded: do not increase the efficiency of reprogramming”.
In the case of `O=C(O)c1cc(NCc2cc(O)ccc2O)ccc1O` [HDBA, Lavendustin C], the “effect on reprogramming efficiency” value [3] is reported as “do not increase the efficiency of reprogramming”, the “GFP+ colonies with mES-like morphology in Klf4 replacement screen” value ([6]; 2000 cells per well, 25 days, scored after 30 days) is reported as “hit compounds” and the “induction of GFP+ colonies and dependence on VPA” value ([6]; larger scale validation) is reported as “both with and without VPA”.
For `CCCN1CCCC[C@H]1C(=O)Nc1c(C)cccc1C` [Ropivacaine], the “effect on reprogramming efficiency” value [3] was “do not increase the efficiency of reprogramming”, the “colonies becoming Oct4::GFP+ after added 5-aza-cytidine” value ([4]; VPA, then 5-aza-cytidine for 48 hours) was “majority of these colonies became Oct4::GFP+” and the “formation of GFP+ colonies, dependence on VPA and 5-aza-cytidine” value ([4]; larger scale) was “only when used in conjunction with VPA and 5-aza-cytidine”. The “colonies with mES-like morphologies but not GFP+” value ([4]; screen with VPA) was “more than 10”.
For `NC(=O)c1ccc(-c2nc(-c3ccc4c(c3)OCO4)c(-c3ccccn3)[nH]2)cc1` [SB431542, 4-(5-benzo[1,3]dioxol-5-yl-4-pyridin-2-yl-1H-imidazol-2-yl)-benzamide], the “GFP+ colonies per 7500 cells plated” value ([5]; 25 μM) was −10, the “effect on reprogramming efficiency” value [3] was “do not increase the efficiency of reprogramming” and the “reprogramming efficiency in the absence of cMyc” value [7] was “increased reprogramming efficiency”. The “Nanog expression versus untreated control” value [8] was “strongly increased” and the “concentration required for complete Tgf-β inhibition” value [9] was “greater than 1 μM”.
With `COC1=C[C@@H]2[C@@H]3Cc4ccc(OC)c(O)c4C2(CCN3C)CC1=O` [Sinomenine] the “effect on reprogramming efficiency” value ([3]; listed as Simomenine) was “not enhanced”, the “effect on reprogramming efficiency” value ([3]; listed as Sinimonine) was “do not increase the efficiency of reprogramming” and the “GFP+ colonies in Oct4 replacement screen” value ([4]; 2000 MEFs, 25 days, VPA 2 mM) was “induced GFP+colonies”. The “Oct4::GFP+ colonies in the absence of VPA” value ([4]; larger scale) was “failed to induce Oct4::GFP+colonies” and the “Oct4::GFP+ colonies in the presence of VPA” value ([4]; larger scale) was “induced Oct4::GFP+colonies”.
In the case of `CCCC(CCC)C(=O)O` [VPA, valproic acid], the “GFP+ colonies with VPA alone” value ([5]; 1500 MEFs, VPA only, no Sox2) is reported as “no GFP+colonies were observed”, the “increase in the number of GFP+ colonies over the untreated control” value [3] is reported as “greater than 10 fold” and the “GFP+ colonies per 7500 MEFs in medium with VPA” value ([3]; four transgenes + VPA) is reported as 100-200 and ~125.
